In article PMC11345841, “Exploring 2-Sulfonylpyrimidine Warheads as Acrylamide Surrogates for Targeted Covalent Inhibition: A BTK Story” (Journal of Medicinal Chemistry, 2024):
Read-outs that look alike come from different tables or passages of the source.

What was measured:
[1] = target: T1, ABL1(M351T)-phosphorylated (Homo sapiens, UniProt P00519, M351T); test: KINOMEscan ScanTK; type: binding
T1 construct: purchased Eurofins DiscoverX KINOMEscan (scanTK)

[2] = target: T2, BRK (Homo sapiens, UniProt Q13882); test: KINOMEscan ScanTK; type: binding
T2 construct: purchased Eurofins DiscoverX KINOMEscan (scanTK)

[3] = target: T3, BTK (Homo sapiens, UniProt Q06187); test: KINOMEscan ScanTK; type: binding; conditions: for remaining binding at 1 µM: BTK; for inhibition at 1 µM: ScanTK
T3 construct: purchased Eurofins DiscoverX KINOMEscan (scanTK)

[4] = tested on: EGFR(L747-T751del,Sins); test: KINOMEscan ScanTK; type: binding; conditions: for % difference (compound - Ib %Control) / %Control: @1000nM
[5] = target: T4, EGFR(S752-I759del) (Homo sapiens, UniProt P00533, DEL752-759); test: KINOMEscan ScanTK; type: binding
T4 construct: purchased Eurofins DiscoverX KINOMEscan (scanTK)

[6] = target: T5, EPHB2 (Homo sapiens, UniProt P29323); test: KINOMEscan ScanTK; type: binding
T5 construct: purchased Eurofins DiscoverX KINOMEscan (scanTK)
T5 sequence (P29323 19-1055): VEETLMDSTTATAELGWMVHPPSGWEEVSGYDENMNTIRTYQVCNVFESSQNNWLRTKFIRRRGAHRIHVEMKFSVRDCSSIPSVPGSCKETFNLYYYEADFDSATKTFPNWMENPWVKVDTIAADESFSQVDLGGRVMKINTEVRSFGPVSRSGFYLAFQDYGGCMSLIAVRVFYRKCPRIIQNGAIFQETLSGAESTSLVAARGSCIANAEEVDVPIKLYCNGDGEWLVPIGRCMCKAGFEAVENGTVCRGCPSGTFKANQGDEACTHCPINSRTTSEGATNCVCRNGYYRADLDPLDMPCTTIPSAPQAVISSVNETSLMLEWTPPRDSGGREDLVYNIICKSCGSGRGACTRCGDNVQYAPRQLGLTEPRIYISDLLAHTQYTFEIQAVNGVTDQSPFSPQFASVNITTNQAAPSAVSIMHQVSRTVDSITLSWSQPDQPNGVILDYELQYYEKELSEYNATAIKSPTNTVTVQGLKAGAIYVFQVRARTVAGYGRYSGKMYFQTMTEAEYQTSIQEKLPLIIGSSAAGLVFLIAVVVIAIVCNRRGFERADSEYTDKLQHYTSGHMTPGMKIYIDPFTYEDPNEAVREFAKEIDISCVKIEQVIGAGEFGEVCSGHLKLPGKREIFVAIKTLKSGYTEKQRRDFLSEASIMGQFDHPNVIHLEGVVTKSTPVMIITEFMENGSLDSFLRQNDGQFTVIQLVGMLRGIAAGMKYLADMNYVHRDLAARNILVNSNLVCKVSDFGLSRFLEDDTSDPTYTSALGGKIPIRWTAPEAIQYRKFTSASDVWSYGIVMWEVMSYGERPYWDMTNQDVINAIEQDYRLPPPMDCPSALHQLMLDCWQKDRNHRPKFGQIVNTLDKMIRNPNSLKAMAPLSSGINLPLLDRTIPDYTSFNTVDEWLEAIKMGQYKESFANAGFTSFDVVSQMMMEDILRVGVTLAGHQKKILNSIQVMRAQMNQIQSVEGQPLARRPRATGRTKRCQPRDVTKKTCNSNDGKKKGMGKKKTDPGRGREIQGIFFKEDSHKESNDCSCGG

[7] = target: T6, ITK (Homo sapiens, UniProt Q08881); test: KINOMEscan ScanTK; type: binding; conditions: for difference in %Control versus compound Ib at 1 µM / remaining binding at 1 µM: ITK; for inhibition at 1 µM: ScanTK
T6 construct: purchased Eurofins DiscoverX KINOMEscan (scanTK)
T6 sequence (Q08881 1-620): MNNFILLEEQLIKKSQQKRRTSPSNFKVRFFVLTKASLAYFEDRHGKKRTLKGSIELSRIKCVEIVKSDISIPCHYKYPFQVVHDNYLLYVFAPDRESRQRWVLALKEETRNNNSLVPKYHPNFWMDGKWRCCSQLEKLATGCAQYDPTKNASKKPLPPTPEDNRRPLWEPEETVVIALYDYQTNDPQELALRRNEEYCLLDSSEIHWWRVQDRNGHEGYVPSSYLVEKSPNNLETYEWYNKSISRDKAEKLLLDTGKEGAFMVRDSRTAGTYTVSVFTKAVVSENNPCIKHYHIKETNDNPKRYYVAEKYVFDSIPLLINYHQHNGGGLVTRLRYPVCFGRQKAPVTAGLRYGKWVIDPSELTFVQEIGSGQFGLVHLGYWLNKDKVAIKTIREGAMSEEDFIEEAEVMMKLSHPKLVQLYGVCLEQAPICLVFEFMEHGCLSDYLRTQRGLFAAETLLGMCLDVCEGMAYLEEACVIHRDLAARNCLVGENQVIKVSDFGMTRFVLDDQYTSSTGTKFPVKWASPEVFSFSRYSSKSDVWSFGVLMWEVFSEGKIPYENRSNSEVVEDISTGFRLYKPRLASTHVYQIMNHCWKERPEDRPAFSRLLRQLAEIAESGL

[8] = target: T7, JAK1(JH2domain-pseudokinase) (Homo sapiens, UniProt P23458); test: KINOMEscan ScanTK; type: binding
T7 construct: JAK1(JH2domain-pseudokinase); purchased Eurofins DiscoverX KINOMEscan (scanTK)

[9] = target: T8, KIT-autoinhibited (Homo sapiens, UniProt P10721); test: KINOMEscan ScanTK; type: binding
T8 construct: purchased Eurofins DiscoverX KINOMEscan (scanTK)

[10] = target: T9, ROS1 (Homo sapiens, UniProt P08922); test: KINOMEscan ScanTK; type: binding; conditions: for %Control difference versus reference Ib at 1 µM: read-out: % difference (compound - Ib %Control)
T9 construct: purchased Eurofins DiscoverX KINOMEscan (scanTK)

[11] = target: T10, ITK, full length (Homo sapiens, UniProt Q08881); test: PhosphoSens enzymatic IC50 (AssayQuant)
T10 sequence (Q08881 1-620): T6 sequence (Q08881 1-620)
Excerpt: Biochemical enzymatic IC50 data were generated by AssayQuant Technologies (Marlborough, MA) using the PhosphoSens Platform. […] Reaction rate versus log [inhibitor concentration] data were fitted to the four-parameter logistic equation [drawing 1]

[12] = tested on: BTK Y223 phosphorylation; test: Immunoblotting, anti-IgM-induced signaling in OCI-LY7 cells; conditions: 500 nM, 1 h
Description: We also investigated the effects of the compounds (at 500 nM) on sIgM signaling by analyzing the phosphorylation status of key signaling molecules activated downstream of the BCR.
Secondary antibodies were horseradish peroxidase-conjugated antibodies (GE Healthcare). Images were captured using the Amersham ImageQuant 800 System and quantified using ImageJ (http://imagej.nih.gov/ij/). Expression of phosphorylated proteins was normalized to the equivalent total protein with values for DMSO/anti-IgM set to 100%.

[13] = @1000nM, read-out: % difference (compound - Ib %Control)

T9 sequence (P08922 28-2347): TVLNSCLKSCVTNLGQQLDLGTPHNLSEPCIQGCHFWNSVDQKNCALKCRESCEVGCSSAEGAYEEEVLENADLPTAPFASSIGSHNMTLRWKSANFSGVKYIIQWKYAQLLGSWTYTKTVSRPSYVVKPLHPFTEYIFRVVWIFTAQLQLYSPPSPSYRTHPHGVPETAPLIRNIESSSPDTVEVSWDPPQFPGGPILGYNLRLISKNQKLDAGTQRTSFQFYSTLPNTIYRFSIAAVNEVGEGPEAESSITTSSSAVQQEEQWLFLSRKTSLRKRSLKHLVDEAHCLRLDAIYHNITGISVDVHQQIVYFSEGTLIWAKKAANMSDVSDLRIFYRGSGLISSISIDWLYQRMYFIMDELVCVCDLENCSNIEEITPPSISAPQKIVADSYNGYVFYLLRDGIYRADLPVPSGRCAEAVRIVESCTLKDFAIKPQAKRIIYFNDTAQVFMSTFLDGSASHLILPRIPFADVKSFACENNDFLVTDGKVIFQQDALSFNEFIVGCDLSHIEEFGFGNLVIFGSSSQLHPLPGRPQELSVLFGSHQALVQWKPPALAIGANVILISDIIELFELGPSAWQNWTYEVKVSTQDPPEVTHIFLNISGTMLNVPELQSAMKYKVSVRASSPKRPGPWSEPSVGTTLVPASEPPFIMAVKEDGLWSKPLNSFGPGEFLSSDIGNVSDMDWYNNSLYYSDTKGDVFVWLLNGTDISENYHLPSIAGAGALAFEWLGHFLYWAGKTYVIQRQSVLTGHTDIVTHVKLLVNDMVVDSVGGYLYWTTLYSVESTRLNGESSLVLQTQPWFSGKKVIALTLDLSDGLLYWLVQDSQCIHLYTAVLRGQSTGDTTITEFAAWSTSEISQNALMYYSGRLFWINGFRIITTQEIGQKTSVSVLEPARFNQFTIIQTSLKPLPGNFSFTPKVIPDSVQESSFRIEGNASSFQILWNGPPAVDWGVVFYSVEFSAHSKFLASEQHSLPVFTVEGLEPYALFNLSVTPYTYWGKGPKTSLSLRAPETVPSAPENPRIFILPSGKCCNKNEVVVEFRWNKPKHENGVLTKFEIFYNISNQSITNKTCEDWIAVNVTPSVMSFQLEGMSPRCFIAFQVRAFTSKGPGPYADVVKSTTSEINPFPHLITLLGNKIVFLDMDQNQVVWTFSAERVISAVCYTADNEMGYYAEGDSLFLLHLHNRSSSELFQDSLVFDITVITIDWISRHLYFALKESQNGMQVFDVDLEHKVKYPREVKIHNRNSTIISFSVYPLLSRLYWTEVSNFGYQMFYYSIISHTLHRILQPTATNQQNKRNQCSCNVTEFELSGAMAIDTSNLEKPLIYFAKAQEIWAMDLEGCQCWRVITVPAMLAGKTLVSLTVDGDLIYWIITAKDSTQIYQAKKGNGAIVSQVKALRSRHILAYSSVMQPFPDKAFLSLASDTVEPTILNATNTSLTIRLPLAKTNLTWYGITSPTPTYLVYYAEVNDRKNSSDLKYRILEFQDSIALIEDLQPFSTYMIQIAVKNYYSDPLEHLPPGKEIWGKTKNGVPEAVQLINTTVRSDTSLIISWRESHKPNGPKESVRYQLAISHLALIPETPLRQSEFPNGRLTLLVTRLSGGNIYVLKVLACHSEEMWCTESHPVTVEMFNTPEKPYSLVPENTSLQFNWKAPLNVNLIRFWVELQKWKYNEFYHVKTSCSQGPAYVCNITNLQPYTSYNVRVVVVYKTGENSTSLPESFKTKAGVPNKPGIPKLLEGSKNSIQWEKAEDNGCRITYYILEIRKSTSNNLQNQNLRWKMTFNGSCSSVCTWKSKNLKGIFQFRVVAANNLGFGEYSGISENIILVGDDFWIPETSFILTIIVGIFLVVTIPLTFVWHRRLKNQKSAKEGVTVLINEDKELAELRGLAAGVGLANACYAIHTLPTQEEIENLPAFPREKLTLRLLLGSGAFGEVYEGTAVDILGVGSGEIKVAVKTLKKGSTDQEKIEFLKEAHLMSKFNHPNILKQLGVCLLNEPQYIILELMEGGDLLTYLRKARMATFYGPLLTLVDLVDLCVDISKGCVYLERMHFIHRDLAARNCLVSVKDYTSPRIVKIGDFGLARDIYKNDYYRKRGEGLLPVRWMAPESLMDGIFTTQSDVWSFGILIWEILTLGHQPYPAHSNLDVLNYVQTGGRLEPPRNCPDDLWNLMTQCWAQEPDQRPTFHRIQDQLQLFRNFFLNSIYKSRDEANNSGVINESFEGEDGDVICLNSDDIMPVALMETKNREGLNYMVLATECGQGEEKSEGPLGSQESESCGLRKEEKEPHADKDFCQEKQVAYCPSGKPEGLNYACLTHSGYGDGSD
T7 sequence (P23458 583-855 limits assumed): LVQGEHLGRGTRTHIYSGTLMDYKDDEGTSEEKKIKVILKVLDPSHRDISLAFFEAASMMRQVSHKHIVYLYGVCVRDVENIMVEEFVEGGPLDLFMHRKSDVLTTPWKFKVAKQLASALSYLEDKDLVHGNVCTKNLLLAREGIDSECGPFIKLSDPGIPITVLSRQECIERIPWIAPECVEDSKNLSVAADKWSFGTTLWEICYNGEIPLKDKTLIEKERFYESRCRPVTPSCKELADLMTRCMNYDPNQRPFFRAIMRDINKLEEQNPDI
T4 sequence (P00533 with tags, fused parts or gaps DEL752-759 limits assumed): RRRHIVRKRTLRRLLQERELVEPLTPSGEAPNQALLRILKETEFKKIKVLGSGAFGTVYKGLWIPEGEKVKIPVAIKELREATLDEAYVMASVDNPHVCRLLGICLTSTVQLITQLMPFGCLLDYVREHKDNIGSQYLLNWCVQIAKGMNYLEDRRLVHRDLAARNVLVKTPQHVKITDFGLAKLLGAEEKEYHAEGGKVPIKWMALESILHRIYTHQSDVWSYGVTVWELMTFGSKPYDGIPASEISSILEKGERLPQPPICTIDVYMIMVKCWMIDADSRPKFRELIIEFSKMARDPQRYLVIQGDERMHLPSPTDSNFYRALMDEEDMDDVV
T2 sequence (Q13882 whole entry): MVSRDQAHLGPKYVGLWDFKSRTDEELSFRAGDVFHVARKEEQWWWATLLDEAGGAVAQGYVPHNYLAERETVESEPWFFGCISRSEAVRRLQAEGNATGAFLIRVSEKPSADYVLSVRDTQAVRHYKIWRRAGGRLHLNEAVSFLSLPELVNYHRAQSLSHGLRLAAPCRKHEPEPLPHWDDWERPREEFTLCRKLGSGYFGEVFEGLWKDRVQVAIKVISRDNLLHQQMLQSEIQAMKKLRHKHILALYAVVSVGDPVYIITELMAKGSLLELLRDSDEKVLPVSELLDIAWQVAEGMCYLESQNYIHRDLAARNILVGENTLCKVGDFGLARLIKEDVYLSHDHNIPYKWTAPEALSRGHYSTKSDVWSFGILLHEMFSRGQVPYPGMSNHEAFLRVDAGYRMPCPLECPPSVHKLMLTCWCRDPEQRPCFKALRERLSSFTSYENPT
T3 sequence (Q06187 whole entry): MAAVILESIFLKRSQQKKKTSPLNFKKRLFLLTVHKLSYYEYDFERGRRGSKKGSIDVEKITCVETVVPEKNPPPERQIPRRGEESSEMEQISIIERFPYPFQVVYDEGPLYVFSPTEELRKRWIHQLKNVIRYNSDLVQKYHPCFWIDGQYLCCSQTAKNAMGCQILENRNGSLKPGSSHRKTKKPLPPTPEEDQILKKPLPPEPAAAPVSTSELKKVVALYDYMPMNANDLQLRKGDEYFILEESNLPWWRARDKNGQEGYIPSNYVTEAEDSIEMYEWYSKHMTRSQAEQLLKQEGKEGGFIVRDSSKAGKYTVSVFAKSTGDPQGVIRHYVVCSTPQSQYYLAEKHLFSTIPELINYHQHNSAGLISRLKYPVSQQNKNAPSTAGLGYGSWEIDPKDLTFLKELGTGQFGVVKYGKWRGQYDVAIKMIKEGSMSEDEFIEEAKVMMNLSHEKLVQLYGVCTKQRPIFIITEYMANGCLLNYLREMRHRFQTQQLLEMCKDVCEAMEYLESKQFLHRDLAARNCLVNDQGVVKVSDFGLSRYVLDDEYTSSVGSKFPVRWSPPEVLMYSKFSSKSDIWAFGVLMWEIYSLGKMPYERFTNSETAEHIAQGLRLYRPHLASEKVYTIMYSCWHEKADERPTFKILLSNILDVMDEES
T8 sequence (P10721 26-976): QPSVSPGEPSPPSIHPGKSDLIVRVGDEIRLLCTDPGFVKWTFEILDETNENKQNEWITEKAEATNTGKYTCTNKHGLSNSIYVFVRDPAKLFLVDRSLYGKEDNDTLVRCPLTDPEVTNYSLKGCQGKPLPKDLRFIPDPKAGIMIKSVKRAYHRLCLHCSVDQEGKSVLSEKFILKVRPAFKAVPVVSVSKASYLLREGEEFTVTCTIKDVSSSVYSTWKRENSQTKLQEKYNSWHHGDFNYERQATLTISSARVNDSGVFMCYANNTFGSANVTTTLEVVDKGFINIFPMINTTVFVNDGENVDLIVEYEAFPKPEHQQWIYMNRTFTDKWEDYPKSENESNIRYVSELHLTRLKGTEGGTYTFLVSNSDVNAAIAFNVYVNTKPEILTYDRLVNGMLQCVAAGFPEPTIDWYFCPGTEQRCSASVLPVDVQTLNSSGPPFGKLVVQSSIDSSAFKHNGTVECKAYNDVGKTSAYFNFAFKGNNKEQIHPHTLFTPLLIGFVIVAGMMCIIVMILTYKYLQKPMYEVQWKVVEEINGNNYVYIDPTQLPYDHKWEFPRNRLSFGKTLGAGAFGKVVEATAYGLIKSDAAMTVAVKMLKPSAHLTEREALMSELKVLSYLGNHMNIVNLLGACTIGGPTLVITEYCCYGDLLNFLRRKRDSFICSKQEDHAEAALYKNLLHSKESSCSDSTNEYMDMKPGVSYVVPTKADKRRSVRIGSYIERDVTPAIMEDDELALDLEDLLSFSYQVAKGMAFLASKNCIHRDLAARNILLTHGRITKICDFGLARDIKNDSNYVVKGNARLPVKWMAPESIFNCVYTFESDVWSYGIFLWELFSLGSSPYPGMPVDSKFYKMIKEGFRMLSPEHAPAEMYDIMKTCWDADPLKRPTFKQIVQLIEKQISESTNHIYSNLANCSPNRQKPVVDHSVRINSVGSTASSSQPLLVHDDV

| Compound | difference in %Control from compound Ib at 1 µM ([1]; @1000nM) | remaining binding at 1 µM ([1]; @1000nM, read-out: %Control) | remaining binding at 1 µM ([1]; read-out: %Control @1000nM) | difference in %Control relative to compound Ib at 1 µM ([2]; @1000nM) | remaining binding at 1 µM ([2]; @1000nM, read-out: %Control) | remaining binding at 1 µM ([2]; read-out: %Control @1000nM) | remaining binding at 1 µM [3, 13] | %Control @1000nM [4] | %Control [4] | remaining binding at 1 µM ([6]; @1000nM, read-out: %Control) | remaining binding at 1 µM ([6]; read-out: %Control @1000nM) | remaining binding at 1 µM ([7]; @1000nM, read-out: %Control) | remaining binding at 1 µM ([7]; read-out: %Control @1000nM) | inhibition at 1 µM [7] | remaining binding at 1 µM ([8]; @1000nM, read-out: %Control) | remaining binding at 1 µM ([8]; read-out: %Control @1000nM) | remaining binding at 1 µM ([9]; @1000nM, read-out: %Control) | remaining binding at 1 µM ([9]; read-out: %Control @1000nM) | remaining binding at 1 µM ([10]; @1000nM, read-out: %Control) | remaining binding at 1 µM ([10]; read-out: %Control @1000nM) | also measured |
| --- | --- | --- | --- | --- | --- | --- | --- | --- | --- | --- | --- | --- | --- | --- | --- | --- | --- | --- | --- | --- | --- |
| CNC(=O)c1cnc(S(C)(=O)=O)nc1N1CCCC(n2nc(-c3ccc(Oc4ccccc4)cc3)c3c(N)ncnc32)C1 (stereo not shown) [Compound 8d, 4-(3-(4-Amino-3-(4-phenoxyphenyl)-1H-pyrazolo[3,4-d]pyrimidin-1-yl)piperidin-1-yl)-N-methyl-2-(methylsulfonyl)pyrimidine-5-carboxamide] | 9% | 74% | 74% | 13.7% | 15% | 15% | 0% | 30% | 30% | 99% | 99% | 81% | 81% | 19% | 100% | 100% | 100% | 100% | 100% | 100% | remaining binding at 1 µM ([3]; @1000nM, read-out: %Control): 0%; remaining binding at 1 µM ([3]; read-out: %Control @1000nM): 0%; inhibition at 1 µM [3]: > 99%; % difference (compound - Ib %Control) [4]: 27.4%; difference in %Control versus compound Ib at 1 µM ([5]; @1000nM): 67%; remaining binding at 1 µM ([5]; @1000nM, read-out: %Control): 69%; remaining binding at 1 µM ([5]; read-out: %Control @1000nM): 69%; %Control difference from compound Ib at 1 µM ([6]; @1000nM): -1%; difference in %Control versus compound Ib at 1 µM ([7]; @1000nM): 66%; %Control difference versus compound Ib at 1 µM ([8]; @1000nM): 5%; %Control difference versus reference Ib at 1 µM ([10]; @1000nM): 3%; IC50 [11]: > 1000 nM |
| CCOC(=O)c1cnc(S(C)(=O)=O)nc1N1CCC[C@@H](n2nc(-c3ccc(Oc4ccccc4)cc3)c3c(N)ncnc32)C1 [Compound 8c, Ethyl (R)-4-(3-(4-Amino-3-(4-phenoxyphenyl)-1H-pyrazolo[3,4-d]pyrimidin-1-yl)piperidin-1-yl)-2-(methylsulfonyl)pyrimidine-5-carboxylate] | 12% | 77% | 77% | 52.7% | 54% | 54% | 18% | 74% | 74% | 98% | 98% | 88% | 88% | 12% | 99% | 99% | 94% | 94% | 100% | 100% | remaining binding at 1 µM ([3]; @1000nM, read-out: %Control): 18%; remaining binding at 1 µM ([3]; read-out: %Control @1000nM): 18%; inhibition at 1 µM [3]: 82%; % difference (compound - Ib %Control) [4]: 71.4%; difference in %Control versus compound Ib at 1 µM ([5]; @1000nM): 98%; remaining binding at 1 µM ([5]; @1000nM, read-out: %Control): 100%; remaining binding at 1 µM ([5]; read-out: %Control @1000nM): 100%; %Control difference from compound Ib at 1 µM ([6]; @1000nM): -2%; difference in %Control versus compound Ib at 1 µM ([7]; @1000nM): 73%; %Control difference versus compound Ib at 1 µM ([8]; @1000nM): 4%; %Control difference versus reference Ib at 1 µM ([10]; @1000nM): 3%; anti-IgM-induced BTK Y223 phosphorylation [12]: selectively reduced BTK Y^223 phosphorylation |
| Cc1cnc(S(C)(=O)=O)nc1N1CCCC(n2nc(-c3ccc(Oc4ccccc4)cc3)c3c(N)ncnc32)C1 (stereo not shown) [Compound 8a, 1-(1-(5-Methyl-2-(methylsulfonyl)pyrimidin-4-yl)piperidin-3-yl)-3-(4-phenoxyphenyl)-1H-pyrazolo[3,4-d]pyrimidin-4-amine] | 0% | 65% | 65% | 13.7% | 15% | 15% | 0.1% | 70% | 70% | 84% | 84% | 84% | 84% | 16% | 100% | 100% | 100% | 100% | 93% | 93% | remaining binding at 1 µM ([3]; @1000nM, read-out: %Control): 0.1%; remaining binding at 1 µM ([3]; read-out: %Control @1000nM): 0.1%; inhibition at 1 µM [3]: > 99%; % difference (compound - Ib %Control) [4]: 67.4%; difference in %Control versus compound Ib at 1 µM ([5]; @1000nM): 98%; remaining binding at 1 µM ([5]; @1000nM, read-out: %Control): 100%; remaining binding at 1 µM ([5]; read-out: %Control @1000nM): 100%; %Control difference from compound Ib at 1 µM ([6]; @1000nM): -16%; difference in %Control versus compound Ib at 1 µM ([7]; @1000nM): 69%; %Control difference versus compound Ib at 1 µM ([8]; @1000nM): 5%; %Control difference versus reference Ib at 1 µM ([10]; @1000nM): -4%; IC50 [11]: > 1000 nM |
| C=CC(=O)N1CCC[C@@H](n2nc(-c3ccc(Oc4ccccc4)cc3)c3c(N)ncnc32)C1 [Compound 1g, Ibrutinib, reference compound] | – | – | – | – | 1.3% | 1.3% | – | 2.6% | 2.6% | 100% | 100% | 15% | 15% | 85% | 95% | 95% | 88% | 88% | 97% | 97% | anti-IgM-induced BTK Y223 phosphorylation [12]: strongly inhibited |
